Activity calls are given as the source filed them.
What was measured:
[1] = target: T1, Bcl-2-related protein A1 (Mus musculus, UniProt Q07440); format: functional;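 also: confirmatory dose–response counterscreen on Bfl-1, used to check hits from a UBC13 polyubiquitin inhibitor campaign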
T1 sequence (Q07440 whole entry): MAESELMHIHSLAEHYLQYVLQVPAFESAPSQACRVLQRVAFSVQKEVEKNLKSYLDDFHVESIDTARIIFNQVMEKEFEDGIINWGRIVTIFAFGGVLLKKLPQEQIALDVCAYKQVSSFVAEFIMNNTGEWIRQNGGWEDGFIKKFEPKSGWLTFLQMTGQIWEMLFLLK

[2] = target: Voltage-gated inwardly rectifying potassium channel KCNH2 (Homo sapiens, UniProt Q12809); settings: Potency;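 also: confirmatory quantitative high-throughput screen measuring inhibition of hERG channel activity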
[3] = target: T2, Ubiquitin-conjugating enzyme E2 N (Homo sapiens, UniProt P61088); format: functional
T2 sequence (P61088 whole entry): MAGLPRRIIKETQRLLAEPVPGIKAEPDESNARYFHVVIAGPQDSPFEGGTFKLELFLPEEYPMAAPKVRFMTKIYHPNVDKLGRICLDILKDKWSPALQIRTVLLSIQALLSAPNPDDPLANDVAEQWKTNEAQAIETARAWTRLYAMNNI

[4] = target: Apelin receptor (Homo sapiens, UniProt P35414); experiment: APJ beta-arrestin recruitment antagonism, SAR follow-up, selectivity assay for CCR6 antagonist project, cell-based, luminescent, enzyme-fragment complementation (AID 588359); format: functional
[5] = system: Streptococcus sp. 'group A'; experiment: growth inhibition of control SK(-) GAS strain, dose response, counter-screen for streptokinase expression inhibitor project, luminescence, kanamycin, BacTiterGlo, confirmation (AID 1900); format: functional, organism-based
[6] = target: T2, Ubiquitin-conjugating enzyme E2 N; format: functional; remark: listed apart in the source
[7] = system: Streptococcus; experiment: Group A Streptococcus viability loss, dose response, counter-screen for streptokinase expression inhibitor project, luminescence, BacTiterGlo (AID 1915); format: functional, organism-based;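 also: potency for reduction of bacterial viability or growth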
[8] = target: C-X-C chemokine receptor type 5 (Homo sapiens, UniProt P32302); experiment: CXCR5 receptor antagonists, SAR follow-up, selectivity assay for CCR6 antagonist project, cell-based, beta-arrestin, luminescence, CHO-K1 PathHunter (AID 540340); format: functional
Chain of C-X-C chemokine receptor type 5 (P32302 whole entry): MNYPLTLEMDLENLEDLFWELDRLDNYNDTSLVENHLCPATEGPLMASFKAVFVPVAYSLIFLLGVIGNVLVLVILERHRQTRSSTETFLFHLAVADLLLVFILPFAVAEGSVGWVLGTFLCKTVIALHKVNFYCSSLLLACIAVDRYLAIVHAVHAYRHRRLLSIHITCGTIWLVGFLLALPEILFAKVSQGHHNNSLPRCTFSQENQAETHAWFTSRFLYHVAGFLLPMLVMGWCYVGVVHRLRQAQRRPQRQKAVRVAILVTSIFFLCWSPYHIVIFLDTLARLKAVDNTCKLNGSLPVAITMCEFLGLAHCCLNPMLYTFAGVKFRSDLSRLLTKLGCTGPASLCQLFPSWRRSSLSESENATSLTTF

[9] = target: T3, Streptokinase A (Streptococcus pyogenes serotype M1, UniProt P10520); experiment: S. pyogenes streptokinase expression inhibitors, potency, dose response, plasminogen activation absorbance, OD405 (AID 1914); format: functional, Streptococcus pyogenes M1 GAS;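 also: secreted streptokinase activity via plasminogen activation per viability signal from cell pellet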
T3 sequence (P10520 whole entry): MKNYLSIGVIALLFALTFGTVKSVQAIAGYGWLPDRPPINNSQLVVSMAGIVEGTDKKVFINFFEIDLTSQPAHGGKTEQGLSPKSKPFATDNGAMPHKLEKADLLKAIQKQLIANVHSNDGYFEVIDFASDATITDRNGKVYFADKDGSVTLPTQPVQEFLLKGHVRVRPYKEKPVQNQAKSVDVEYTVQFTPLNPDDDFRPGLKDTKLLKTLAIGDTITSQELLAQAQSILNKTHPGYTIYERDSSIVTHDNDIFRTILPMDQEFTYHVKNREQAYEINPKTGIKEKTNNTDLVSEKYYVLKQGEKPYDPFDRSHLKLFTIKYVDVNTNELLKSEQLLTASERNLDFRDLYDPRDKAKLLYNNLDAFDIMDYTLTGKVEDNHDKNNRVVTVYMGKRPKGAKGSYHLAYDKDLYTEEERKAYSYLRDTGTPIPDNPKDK

[10] = target: C-C chemokine receptor type 6 (Homo sapiens, UniProt P51684); experiment: CCR6 receptor antagonists, SAR follow-up, cell-based, luminescent beta-arrestin readout (AID 540334); format: functional
Chain of C-C chemokine receptor type 6 (P51684 whole entry): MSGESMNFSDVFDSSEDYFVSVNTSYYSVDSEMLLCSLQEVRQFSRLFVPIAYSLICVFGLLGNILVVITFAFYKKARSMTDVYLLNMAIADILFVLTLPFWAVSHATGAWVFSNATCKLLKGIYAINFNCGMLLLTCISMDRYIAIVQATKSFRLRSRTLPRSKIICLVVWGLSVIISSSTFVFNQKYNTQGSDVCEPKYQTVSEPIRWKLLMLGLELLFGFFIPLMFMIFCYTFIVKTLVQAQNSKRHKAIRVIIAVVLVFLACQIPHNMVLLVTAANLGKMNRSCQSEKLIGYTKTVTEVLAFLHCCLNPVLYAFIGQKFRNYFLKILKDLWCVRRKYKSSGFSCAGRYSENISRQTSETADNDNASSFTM

[11] = target: Megakaryocyte-associated tyrosine-protein kinase (Homo sapiens, UniProt P42679); format: functional;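 also: affinity measured as one member of a kinase panel (Navigating the Kinome) against MATK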
Chain of Megakaryocyte-associated tyrosine-protein kinase (P42679 whole entry): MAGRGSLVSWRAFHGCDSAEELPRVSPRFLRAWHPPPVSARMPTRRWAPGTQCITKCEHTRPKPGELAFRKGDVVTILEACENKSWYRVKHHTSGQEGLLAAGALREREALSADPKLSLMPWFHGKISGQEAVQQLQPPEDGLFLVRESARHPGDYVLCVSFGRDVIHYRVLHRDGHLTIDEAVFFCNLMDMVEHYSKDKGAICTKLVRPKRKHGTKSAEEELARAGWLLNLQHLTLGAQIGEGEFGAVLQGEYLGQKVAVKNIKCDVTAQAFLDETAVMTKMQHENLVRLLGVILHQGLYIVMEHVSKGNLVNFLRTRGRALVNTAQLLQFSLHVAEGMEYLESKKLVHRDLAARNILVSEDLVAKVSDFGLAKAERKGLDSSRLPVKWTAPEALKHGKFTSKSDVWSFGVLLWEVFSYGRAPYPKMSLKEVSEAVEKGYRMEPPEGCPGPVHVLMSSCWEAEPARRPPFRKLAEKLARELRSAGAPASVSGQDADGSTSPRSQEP

[12] = target: Serine/threonine-protein kinase BRSK1 (Homo sapiens, UniProt Q8TDC3); format: functional;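 also: measured within a kinome-wide kinase panel, with the target listed as KIAA1811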
Chain of Serine/threonine-protein kinase BRSK1 (Q8TDC3 whole entry): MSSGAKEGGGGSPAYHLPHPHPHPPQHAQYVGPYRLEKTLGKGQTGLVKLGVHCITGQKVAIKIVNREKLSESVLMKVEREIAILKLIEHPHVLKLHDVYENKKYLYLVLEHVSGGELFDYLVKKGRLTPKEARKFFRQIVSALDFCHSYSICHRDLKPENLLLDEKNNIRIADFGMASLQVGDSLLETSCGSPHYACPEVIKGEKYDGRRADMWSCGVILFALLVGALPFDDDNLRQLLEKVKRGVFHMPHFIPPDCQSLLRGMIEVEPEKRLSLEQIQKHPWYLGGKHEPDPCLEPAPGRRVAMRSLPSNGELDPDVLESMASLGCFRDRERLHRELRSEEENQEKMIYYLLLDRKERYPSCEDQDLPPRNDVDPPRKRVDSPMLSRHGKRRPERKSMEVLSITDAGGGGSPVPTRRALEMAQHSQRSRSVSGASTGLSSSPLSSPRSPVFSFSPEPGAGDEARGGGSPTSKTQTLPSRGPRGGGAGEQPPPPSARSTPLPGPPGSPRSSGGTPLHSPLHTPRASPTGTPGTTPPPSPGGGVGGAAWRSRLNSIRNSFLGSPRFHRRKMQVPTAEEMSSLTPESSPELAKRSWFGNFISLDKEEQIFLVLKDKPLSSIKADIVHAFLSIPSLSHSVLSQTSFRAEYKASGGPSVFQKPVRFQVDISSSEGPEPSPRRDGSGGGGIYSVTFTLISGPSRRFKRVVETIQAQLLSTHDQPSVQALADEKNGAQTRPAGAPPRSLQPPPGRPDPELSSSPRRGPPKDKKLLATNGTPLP

[13] = target: Interleukin-1 receptor-associated kinase 1 (Homo sapiens, UniProt P51617); format: functional;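 also: IRAK1 tested as one member of a kinome panel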
[14] = target: Ribosomal protein S6 kinase alpha-3 (Homo sapiens, UniProt P51812); format: functional;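 also: measured within a kinome-wide profiling panel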
[15] = target: Serine/threonine-protein kinase Chk1 (Homo sapiens, UniProt O14757); format: functional;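 also: measured as one member of a kinome-wide kinase profiling panel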
Chain of Serine/threonine-protein kinase Chk1 (O14757 whole entry): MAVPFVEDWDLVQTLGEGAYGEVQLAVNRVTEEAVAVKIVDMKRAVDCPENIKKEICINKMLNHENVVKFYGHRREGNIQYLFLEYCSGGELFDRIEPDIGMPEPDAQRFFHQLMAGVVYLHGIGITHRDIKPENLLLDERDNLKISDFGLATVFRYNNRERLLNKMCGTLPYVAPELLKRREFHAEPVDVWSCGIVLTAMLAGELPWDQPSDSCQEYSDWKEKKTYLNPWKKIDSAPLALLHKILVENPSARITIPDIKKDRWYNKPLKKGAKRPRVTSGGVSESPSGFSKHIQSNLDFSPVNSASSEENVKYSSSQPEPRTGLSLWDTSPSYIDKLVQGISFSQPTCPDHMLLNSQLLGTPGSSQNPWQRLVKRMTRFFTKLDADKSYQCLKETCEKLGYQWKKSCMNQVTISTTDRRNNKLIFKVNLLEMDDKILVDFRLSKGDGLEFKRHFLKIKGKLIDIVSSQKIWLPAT

[16] = target: Serine/threonine-protein kinase pim-1 (Homo sapiens, UniProt P11309); format: functional
Chain of Serine/threonine-protein kinase pim-1 (P11309 whole entry): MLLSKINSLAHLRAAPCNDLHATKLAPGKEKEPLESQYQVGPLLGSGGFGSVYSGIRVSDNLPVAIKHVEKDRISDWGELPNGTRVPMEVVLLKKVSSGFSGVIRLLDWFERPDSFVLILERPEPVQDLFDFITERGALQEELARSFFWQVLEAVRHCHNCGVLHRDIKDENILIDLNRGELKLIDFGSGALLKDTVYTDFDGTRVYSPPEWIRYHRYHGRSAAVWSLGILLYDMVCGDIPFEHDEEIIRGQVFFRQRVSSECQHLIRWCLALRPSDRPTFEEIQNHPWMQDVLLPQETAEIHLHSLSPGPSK

[17] = target: T4, Caspase-3 (Homo sapiens, UniProt P42574); experiment: SAR Analysis of small molecule inhibitors of Sentrin-specific proteases (SENPs) using a Caspase-3 Selectivity assay. [Related pubchem assays (depositor defined):AID2540, AID2599, AID434973, AID489001]; format: functional
T4 sequence (P42574 whole entry): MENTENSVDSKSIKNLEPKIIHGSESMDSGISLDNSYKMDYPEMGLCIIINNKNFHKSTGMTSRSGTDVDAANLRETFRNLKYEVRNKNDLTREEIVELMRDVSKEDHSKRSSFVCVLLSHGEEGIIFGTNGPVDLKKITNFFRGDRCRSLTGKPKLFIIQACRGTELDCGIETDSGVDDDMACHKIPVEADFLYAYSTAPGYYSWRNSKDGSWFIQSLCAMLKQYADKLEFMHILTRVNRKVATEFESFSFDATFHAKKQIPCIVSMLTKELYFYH

[18] = target: T5, Sentrin-specific protease 8 (Homo sapiens, UniProt Q96LD8); experiment: SENP8 protease inhibitors, SAR follow-up, biochemical, luminescence (AID 504501); format: functional
T5 sequence (Q96LD8 whole entry): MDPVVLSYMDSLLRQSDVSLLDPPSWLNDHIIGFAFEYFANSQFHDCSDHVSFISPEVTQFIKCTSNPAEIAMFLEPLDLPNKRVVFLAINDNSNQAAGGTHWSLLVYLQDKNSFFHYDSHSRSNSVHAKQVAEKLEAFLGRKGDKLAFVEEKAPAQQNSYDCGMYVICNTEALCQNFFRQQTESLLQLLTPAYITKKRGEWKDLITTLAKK

[19] = target: T4, Caspase-3; experiment: caspase-3 inhibitors as off-family protease, SAR follow-up, selectivity assay for SENP protease inhibitor project, biochemical, luminescence, set 2 (AID 588599); format: functional
[20] = target: T6, Sentrin-specific protease 7 (Homo sapiens, UniProt Q9BQF6); experiment: SENP7 protease inhibitors, SAR follow-up, biochemical, luminescence, set 2 (AID 588600); format: functional
T6 sequence (Q9BQF6 whole entry): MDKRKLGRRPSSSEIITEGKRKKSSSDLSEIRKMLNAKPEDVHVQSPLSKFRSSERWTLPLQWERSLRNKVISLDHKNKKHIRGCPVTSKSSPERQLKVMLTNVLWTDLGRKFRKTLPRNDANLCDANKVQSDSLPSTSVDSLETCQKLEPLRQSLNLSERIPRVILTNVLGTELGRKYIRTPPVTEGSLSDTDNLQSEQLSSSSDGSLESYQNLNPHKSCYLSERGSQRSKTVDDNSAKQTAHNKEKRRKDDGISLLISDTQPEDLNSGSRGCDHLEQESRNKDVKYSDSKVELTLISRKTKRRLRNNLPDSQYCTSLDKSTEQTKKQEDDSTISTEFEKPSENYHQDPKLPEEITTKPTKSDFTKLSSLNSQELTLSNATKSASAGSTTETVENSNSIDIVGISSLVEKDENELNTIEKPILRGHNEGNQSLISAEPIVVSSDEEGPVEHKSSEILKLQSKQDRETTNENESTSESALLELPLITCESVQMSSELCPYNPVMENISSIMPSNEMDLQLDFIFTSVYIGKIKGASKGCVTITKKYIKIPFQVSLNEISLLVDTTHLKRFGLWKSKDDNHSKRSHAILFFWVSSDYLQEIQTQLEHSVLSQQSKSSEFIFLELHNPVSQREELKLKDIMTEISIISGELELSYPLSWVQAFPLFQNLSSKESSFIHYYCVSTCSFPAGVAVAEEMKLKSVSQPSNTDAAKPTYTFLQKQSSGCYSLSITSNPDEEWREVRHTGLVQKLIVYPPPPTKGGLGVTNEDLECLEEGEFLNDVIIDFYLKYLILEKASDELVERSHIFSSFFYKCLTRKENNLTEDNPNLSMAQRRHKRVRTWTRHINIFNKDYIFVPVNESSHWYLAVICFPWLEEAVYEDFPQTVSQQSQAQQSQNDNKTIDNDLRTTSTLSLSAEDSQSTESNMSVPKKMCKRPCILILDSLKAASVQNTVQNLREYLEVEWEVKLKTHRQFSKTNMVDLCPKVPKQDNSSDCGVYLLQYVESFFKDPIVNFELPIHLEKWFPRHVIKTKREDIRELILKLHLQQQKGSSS

[21] = target: T7, Sentrin-specific protease 6 (Homo sapiens, UniProt Q9GZR1); experiment: SENP6 protease inhibitors, SAR follow-up, biochemical, luminescence, set 2 (AID 588598); format: functional
T7 sequence (Q9GZR1 whole entry): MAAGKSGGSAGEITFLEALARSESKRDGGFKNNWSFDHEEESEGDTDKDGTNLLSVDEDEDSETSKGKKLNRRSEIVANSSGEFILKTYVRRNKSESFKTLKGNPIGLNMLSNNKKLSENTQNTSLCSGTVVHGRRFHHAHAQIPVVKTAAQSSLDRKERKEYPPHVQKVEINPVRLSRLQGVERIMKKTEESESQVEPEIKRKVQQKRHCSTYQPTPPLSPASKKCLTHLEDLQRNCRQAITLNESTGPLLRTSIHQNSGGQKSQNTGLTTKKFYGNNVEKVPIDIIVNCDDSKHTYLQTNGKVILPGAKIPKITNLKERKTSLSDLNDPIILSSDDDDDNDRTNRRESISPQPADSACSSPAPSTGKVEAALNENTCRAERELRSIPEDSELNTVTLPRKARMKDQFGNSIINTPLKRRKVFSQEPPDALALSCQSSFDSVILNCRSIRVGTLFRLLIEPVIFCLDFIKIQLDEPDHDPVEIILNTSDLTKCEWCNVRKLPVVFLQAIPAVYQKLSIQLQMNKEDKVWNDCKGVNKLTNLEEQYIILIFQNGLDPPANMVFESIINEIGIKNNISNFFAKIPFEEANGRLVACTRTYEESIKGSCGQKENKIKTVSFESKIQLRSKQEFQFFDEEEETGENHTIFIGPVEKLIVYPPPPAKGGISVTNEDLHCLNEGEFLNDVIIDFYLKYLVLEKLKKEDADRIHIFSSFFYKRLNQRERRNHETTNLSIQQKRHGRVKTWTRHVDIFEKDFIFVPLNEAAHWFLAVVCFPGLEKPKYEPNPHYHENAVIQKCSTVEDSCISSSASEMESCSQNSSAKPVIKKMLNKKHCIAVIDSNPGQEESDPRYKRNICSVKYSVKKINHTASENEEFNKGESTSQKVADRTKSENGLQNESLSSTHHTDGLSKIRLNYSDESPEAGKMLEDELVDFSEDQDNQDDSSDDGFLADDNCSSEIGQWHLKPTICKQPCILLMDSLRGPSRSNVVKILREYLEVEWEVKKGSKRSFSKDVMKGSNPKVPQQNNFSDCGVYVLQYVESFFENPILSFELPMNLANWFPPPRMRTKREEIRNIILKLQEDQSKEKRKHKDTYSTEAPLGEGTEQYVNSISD

[22] = target: T6, Sentrin-specific protease 7; experiment: SENP7 protease inhibitors, SAR follow-up, biochemical, luminescence (AID 504497); format: functional
[23] = target: T7, Sentrin-specific protease 6; experiment: SAR Analysis of small molecule inhibitors of Sentrin-specific protease 6 (SENP6) using a Luminescent assay. [Related pubchem assays (depositor defined):AID2582, AID2599]; format: functional
[24] = target: T5, Sentrin-specific protease 8; experiment: SENP8 protease inhibitors, SAR follow-up, biochemical, luminescence, set 2 (AID 588601); format: functional
[25] = target: Eukaryotic elongation factor 2 kinase (Homo sapiens, UniProt O00418); format: functional
Chain of Eukaryotic elongation factor 2 kinase (O00418 whole entry): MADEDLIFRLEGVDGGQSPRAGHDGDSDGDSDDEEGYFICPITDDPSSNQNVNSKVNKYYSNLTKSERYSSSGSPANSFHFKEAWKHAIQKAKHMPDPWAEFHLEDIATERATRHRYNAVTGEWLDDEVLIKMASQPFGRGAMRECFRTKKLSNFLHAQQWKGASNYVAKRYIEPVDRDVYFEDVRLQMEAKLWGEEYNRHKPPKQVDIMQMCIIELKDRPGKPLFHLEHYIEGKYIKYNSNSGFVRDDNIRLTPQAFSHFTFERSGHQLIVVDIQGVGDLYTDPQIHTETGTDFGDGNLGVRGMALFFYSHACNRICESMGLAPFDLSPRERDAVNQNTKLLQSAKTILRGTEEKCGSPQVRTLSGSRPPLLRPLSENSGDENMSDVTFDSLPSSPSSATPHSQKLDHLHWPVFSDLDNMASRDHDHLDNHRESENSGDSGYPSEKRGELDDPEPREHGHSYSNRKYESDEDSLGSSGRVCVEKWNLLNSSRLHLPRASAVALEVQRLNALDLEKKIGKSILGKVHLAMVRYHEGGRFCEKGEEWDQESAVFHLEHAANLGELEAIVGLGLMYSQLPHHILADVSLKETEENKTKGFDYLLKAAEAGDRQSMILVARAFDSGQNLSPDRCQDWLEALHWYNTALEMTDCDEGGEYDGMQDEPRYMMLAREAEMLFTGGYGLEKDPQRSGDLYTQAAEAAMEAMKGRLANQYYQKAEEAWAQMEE

[26] = target: Serine/threonine-protein kinase D2 (Homo sapiens, UniProt Q9BZL6); format: functional;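 also: measured against PRKD2 as one member of a kinome-wide kinase profiling panel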
Chain of Serine/threonine-protein kinase D2 (Q9BZL6 whole entry): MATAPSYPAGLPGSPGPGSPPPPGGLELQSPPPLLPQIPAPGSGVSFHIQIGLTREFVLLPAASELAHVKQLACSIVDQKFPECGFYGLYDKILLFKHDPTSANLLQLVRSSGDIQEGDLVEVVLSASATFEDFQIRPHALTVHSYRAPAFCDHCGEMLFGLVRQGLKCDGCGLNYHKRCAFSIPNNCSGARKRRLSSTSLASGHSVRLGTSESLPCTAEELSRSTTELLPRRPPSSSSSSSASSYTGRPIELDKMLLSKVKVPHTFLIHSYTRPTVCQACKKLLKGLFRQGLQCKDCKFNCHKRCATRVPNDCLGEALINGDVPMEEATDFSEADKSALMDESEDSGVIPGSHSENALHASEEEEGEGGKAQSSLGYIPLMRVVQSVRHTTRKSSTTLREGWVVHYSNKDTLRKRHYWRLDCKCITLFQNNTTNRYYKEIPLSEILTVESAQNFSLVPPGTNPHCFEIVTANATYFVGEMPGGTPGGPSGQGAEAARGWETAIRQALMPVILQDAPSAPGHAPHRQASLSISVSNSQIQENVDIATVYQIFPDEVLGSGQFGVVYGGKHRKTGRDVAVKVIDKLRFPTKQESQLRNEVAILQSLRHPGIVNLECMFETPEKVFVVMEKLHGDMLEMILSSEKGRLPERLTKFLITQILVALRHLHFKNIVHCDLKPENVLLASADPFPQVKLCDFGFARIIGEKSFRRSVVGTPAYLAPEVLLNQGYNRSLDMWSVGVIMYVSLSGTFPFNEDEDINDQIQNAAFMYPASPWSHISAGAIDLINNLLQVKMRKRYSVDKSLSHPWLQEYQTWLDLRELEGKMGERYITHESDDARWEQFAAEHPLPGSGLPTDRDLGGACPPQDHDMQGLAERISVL

[27] = target: Protein kinase C gamma type (Homo sapiens, UniProt P05129); format: functional
[28] = target: Dual specificity tyrosine-phosphorylation-regulated kinase 4 (Homo sapiens, UniProt Q9NR20); format: functional
Chain of Dual specificity tyrosine-phosphorylation-regulated kinase 4 (Q9NR20 whole entry): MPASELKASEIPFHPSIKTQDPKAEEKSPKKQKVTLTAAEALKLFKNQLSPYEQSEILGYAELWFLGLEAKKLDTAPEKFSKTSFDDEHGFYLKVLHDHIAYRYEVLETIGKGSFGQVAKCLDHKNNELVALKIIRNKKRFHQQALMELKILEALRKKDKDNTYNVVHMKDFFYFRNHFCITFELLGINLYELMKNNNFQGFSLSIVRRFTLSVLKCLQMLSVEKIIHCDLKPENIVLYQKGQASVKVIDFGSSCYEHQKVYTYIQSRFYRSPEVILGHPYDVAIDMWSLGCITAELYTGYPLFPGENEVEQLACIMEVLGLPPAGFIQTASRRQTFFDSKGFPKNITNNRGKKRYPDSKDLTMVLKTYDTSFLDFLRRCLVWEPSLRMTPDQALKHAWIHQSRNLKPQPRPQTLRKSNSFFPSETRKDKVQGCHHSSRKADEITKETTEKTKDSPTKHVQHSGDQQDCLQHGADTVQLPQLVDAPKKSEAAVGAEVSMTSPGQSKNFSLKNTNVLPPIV

[29] = target: MAP kinase-activated protein kinase 3 (Homo sapiens, UniProt Q16644); format: functional;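 also: value comes from a kinome-wide profiling panel in which MAPKAPK3 is one of the panel members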
[30] = target: Testis-specific serine/threonine-protein kinase 2 (Homo sapiens, UniProt Q96PF2); format: functional;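 also: part of the Navigating the Kinome panel, target entry STK22B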
[31] = target: Lymphokine-activated killer T-cell-originated protein kinase (Homo sapiens, UniProt Q96KB5); format: functional;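 also: value comes from a kinase panel screen in which TOPK was one of the panel members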
[32] = THP-1 cell cytotoxicity, cytotoxicity control, set 6 (AID 602433); format: functional; settings: Mycobacterium tuberculosis

Compound: CCCCCCCCCCCCC/C=C/[C@@H](O)[C@@H](N)CO [SPHINGOSINE]
- IC50 [1]: > 20 µM (inactive)
- AC50 [2]: 35.5 µM (inconclusive)
- IC50 [3]: 6.2 µM (active)
- IC50 [4]: > 66.6 µM (inactive)
- EC50 [5]: 1.52 µM (active)
- IC50 [6]: 6.42 µM (active)
- EC50 [7]: 8.1 µM (active)
- IC50 [8]: 32.5 µM (inactive)
- EC50 [9]: > 150 µM (not active)
- IC50 [10]: 20.9 µM (inactive)

Compound: CC1=NN(c2ccc(C(=O)O)cc2)C(=O)C1=Cc1c(C)cc2nc3ccccc3n2c1O
- Ki [11]: 1.58 µM (active)
- Ki [12]: 5.01 µM (active)
- Ki [13]: 6.31 µM (active)

Compound: Cc1ccc2c(=O)[nH]cnc2c1
- Ki [14]: 5.01 µM (active)
- Ki [15]: 15.8 µM (active)
- Ki [16]: 7.94 µM (active)

Compound: Oc1ccccc1-c1nc(/C=C/c2ccc(Cl)cc2)no1
- IC50 [17]: 3.7 µM (active)
- IC50 [18]: > 99 µM (inactive)
- IC50 [19]: 1.57 µM (active)
- IC50 [20]: 2.08 µM (active)
- IC50 [21]: 1.5 µM (active)
- IC50 [22]: 1.4 µM (active)
- IC50 [23]: > 99 µM (inactive)
- IC50 [24]: 1.44 µM (active)

Compound: CCN(CC)CCNC(=O)c1c(C)[nH]c(C=C2C(=O)Nc3ccc(F)cc32)c1C
- Ki [25]: > 3.98 µM (inactive)
- Ki [26]: 0.398 µM (active)
- Ki [27]: > 6.31 µM (inactive)
- Ki [28]: > 7.94 µM (inactive)
- Ki [29]: > 10 µM (inactive)
- Ki [30]: 0.631 µM (active)
- Ki [31]: > 10 µM (inactive)

Compound: COCCNC(=O)CSc1nc2ccccc2c(=O)[nH]1
- CC50 [32]: > 100 µM (active)
